ChEMBL document CHEMBL1141786, “Microbial transformation of curvularin” (J Nat Prod, 2005)
Activity calls are given as the source filed them.

Tests used:
Assay type in all cases: functional, cell-based
SF-268 = experiment: Cytotoxicity against human SF268 cells upto 10 ug/mL by MTT assay
NCI-H460 = experiment: Cytotoxicity against human NCI-H460 cells upto 10 ug/mL by MTT assay
MCF7 = experiment: Cytotoxicity against human MCF7 cells upto 10 ug/mL by MTT assay

Measured: Activity

CO[C@H]1[C@H](O)[C@@H](O)[C@H](Oc2c(O)cc3c(c2O)C(=O)CCCCC[C@H](C)OC(=O)C3)O[C@@H]1CO
inactive: SF-268 | NCI-H460 | MCF7

C[C@H]1CCCCCC(=O)c2c(cc(O)cc2O[C@@H]2O[C@H](CO)[C@@H](O)[C@H](O)[C@H]2O)CC(=O)O1
inactive: SF-268 | NCI-H460 | MCF7

CO[C@H]1[C@H](O)[C@@H](O)[C@H](Oc2cc(O)cc3c2C(=O)CCCCC[C@H](C)OC(=O)C3)O[C@@H]1CO
inactive: SF-268 | NCI-H460 | MCF7
